One test has as its target T1, human CDK4/cyclin D3 (Homo sapiens, UniProt P11802).
T1 construct: made in house; host or cells: insect cells co-infected with baculovirus vectors
Description: Inhibition of CDK4/cyclin D retinoblastoma kinase activity (Ki; % inhibition). The format is biochemical. The conditions noted are these: for pKi: apparent Ki, CDK4/cyclin D3, Rb substrate. The method, boiled down: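 Insect-cell-expressed CDK4 with truncated cyclin D3 (1-264), 5 nM, phosphorylating His-tagged Rb fragment (386-928) with 25 μM [32/33P]ATP at pH 7.4, 30 °C, 20 min (60 min for tight binders). Filter capture, phosphorimager read; % inhibition at 30 nM compound, Ki from competitive or tight-binding fits.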

The target in a further test is T2, CDK2/cyclin A (Homo sapiens, UniProt P24941).
T2 construct: made in house; host or cells: CDK2: insect cells (baculovirus); cyclin A: E. coli
Nature of the test: Inhibition of CDK2/cyclin A retinoblastoma kinase activity (Ki; % inhibition). The format is biochemical. The note with it: for pKi: apparent Ki, CDK2/cyclin A, Rb substrate. The method, boiled down:
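Radiometric filter assay of CDK2/proteolyzed cyclin A (baculovirus-expressed human CDK2, 10 or 19 nM) phosphorylating an Rb fragment with 25 μM [³²P/³³P]ATP in pH 7.4 HEPES, 2% DMSO, at 30 °C for 60 or 75 min under initial-rate conditions. Library compounds screened at 30 nM for % inhibition; apparent Ki from concentration series fit to competitive or tight-binding inhibition equations.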

The next test relates to HCT-116 cell line. Nature of the test: Inhibition of cell growth, MTT tetrazolium salt assay. The format is cell-based. The note with it: for pIC50: Homo sapiens, HCT-116, 120 h, MTT, three to five days. The method, boiled down:
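Growth inhibition was read as MTT-formazan absorbance at 540 nm, after 4 h with 0.2 mg/mL MTT. Before that, HCT-116 cells had been exposed 3–5 days at 37 °C to compounds in 0.5% (v/v) DMSO, added 4 h after plating. 50% and 90% inhibitory concentrations were taken from semi-log concentration–inhibition plots versus vehicle controls.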

[1] abbreviates: HCT-116 cells, 0.25 μM compound.

As usually defined, the inhibition is how much of the control response was suppressed. As usually defined, the pIC50 is −log10 of the IC50, conventionally taken in molar units. By pKi is commonly meant the Ki on a negative log10 scale, so that one unit is a factor of ten.

pIC50, pKi: −log10 of the molar value. Structures can show the parent of a compound that is named as a salt.

T1 sequence (P11802 whole entry): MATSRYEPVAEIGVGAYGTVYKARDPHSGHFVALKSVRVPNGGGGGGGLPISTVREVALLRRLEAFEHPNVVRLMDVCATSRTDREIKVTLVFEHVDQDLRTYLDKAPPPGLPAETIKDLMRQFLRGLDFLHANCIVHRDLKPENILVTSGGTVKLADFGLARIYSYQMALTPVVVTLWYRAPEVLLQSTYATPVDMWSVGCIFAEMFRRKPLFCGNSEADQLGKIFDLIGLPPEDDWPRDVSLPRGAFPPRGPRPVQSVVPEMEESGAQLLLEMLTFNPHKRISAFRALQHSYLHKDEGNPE
T1 sequence (P30281 1-264 partner limits assumed): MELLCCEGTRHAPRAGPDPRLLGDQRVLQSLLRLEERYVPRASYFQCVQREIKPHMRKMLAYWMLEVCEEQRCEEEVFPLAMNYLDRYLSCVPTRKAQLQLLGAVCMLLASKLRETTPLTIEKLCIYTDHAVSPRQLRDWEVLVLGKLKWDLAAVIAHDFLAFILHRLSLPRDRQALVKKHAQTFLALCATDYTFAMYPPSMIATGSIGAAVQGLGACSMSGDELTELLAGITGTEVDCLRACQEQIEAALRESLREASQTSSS

Consider `NC(=O)CCNC(=O)c1ccc(Nc2nc(N)c(C(=O)c3c(F)cccc3F)s2)cc1` [Example G137], for which, at human CDK4/cyclin D3 (at 0.03 μM), the “CDK4 % Inhibition at 0.03 μM” value was 25%. Besides, the “CDK2 % Inhibition at 0.03 μM” value at CDK2/cyclin A (at 0.03 μM) was found to be 2%. Further, the “HCT-116 % Inhibition at 0.1 μM” value in the test with HCT-116 cell line (HCT-116, at 0.1 μM) amounted to 0%. In addition, the “HCT-116 % Inhibition at 0.25 μM” value in the test on HCT-116 cell line (HCT-116, at 0.25 μM) is 59%.
Consider `CC(=O)Nc1ccccc1C(=O)c1sc(Nc2ccc(C(=O)NC[C@@H]3CCCN3C)cc2)nc1N` [Example A72, 4-{5-(2-Acetylamino-benzoyl)-4-amino-thiazol-2-ylamino}-N-(1-methyl-pyrrolidin-2S-ylmethyl)-benzamide], for which the inhibition at 1 µM on human CDK4/cyclin D3 and at CDK2/cyclin A was 0% each time. The pIC50 with HCT-116 cell line is < 6.30.
Regarding `CN(Cc1cccnc1)C(=O)c1ccc(Nc2nc(N)c(C(=O)c3c(F)cccc3F)s2)cc1` [Example G20], the “CDK4 % Inhibition at 0.03 μM” value on human CDK4/cyclin D3 (at 0.03 μM) was found to be 9%. Further, the “CDK2 % Inhibition at 0.03 μM” value at CDK2/cyclin A (at 0.03 μM) was 10%. Further, in the test on HCT-116 cell line (HCT-116, at 0.25 μM), the “HCT-116 % Inhibition at 0.25 μM” value is 50%.
Turning to `CCCN(CC1CC1)C(=O)c1ccc(Nc2nc(N)c(C(=O)c3c(F)cccc3F)s2)cc1` [Example G1], the “CDK4 % Inhibition at 0.03 μM” value at human CDK4/cyclin D3 (at 0.03 μM) is on record as −10%. In addition, the “CDK2 % Inhibition at 0.03 μM” value at CDK2/cyclin A (at 0.03 μM) was −3%. Besides, in the test with HCT-116 cell line (HCT-116, at 0.25 μM), the “HCT-116 % Inhibition at 0.25 μM” value is 56%.
On to `Nc1nc(Nc2ccc(C(=O)NCCN3CCOCC3)cc2)sc1C(=O)c1c(F)cccc1F` [Example A1, 4-[4-Amino-5-(2,6-difluoro-benzoyl)-thiazol-2-ylamino]-N-(2-morpholin-4-yl-ethyl)-benzamide], for which the pKi on human CDK4/cyclin D3 was 7.57; on CDK2/cyclin A it was 6.85. Moreover, the negative-log IC50 (pIC50) in the test on HCT-116 cell line is 6.12.
`Nc1nc(Nc2ccc(C(=O)NC[C@@H]3CCCC[C@H]3O)cc2)sc1C(=O)c1c(F)cccc1F` (relative stereo) [Example G350]: at human CDK4/cyclin D3 (0.03 μM compound), the “CDK4 % Inhibition at 0.03 μM” value is on record as 9%. Besides, the “CDK2 % Inhibition at 0.03 μM” value at CDK2/cyclin A (0.03 μM compound) is 4%. In addition, the “HCT-116 % Inhibition at 0.1 μM” value with HCT-116 cell line (HCT-116 cells, 0.1 μM compound) was 24%. The “HCT-116 % Inhibition at 0.25 μM” value with HCT-116 cell line (setting [1]) is on record as 41%.
Regarding `Nc1nc(Nc2ccc(C(=O)N3CCC(O)C3)cc2)sc1C(=O)c1c(F)cccc1F` (stereo not drawn) [Example G55], the “CDK4 % Inhibition at 0.03 μM” value at human CDK4/cyclin D3 (at 0.03 μM) came out at 16%. Further, on CDK2/cyclin A (at 0.03 μM), the “CDK2 % Inhibition at 0.03 μM” value stood at 22%. In addition, the “HCT-116 % Inhibition at 0.25 μM” value in the test with HCT-116 cell line (HCT-116, at 0.25 μM) was 57%.
As for `Nc1nc(Nc2ccc(C(=O)NCCn3ccnc3)cc2)sc1C(=O)c1c(F)cccc1F` [Example A55, 4-[4-Amino-5-(2,6-difluoro-benzoyl)-thiazol-2-ylamino]-N-[2-(imidazol-1-yl)-ethyl]-benzamide Dihydrochloride Salt], the pKi on human CDK4/cyclin D3 is 7.77; at CDK2/cyclin A, 7.25. Also, the pIC50 in the test on HCT-116 cell line was 5.49.
With `CC(C)CC(C)NC(=O)c1ccc(Nc2nc(N)c(C(=O)c3c(F)cccc3F)s2)cc1` (stereo not drawn) [Example G125], the “CDK4 % Inhibition at 0.03 μM” value at human CDK4/cyclin D3 (at 0.03 μM) is recorded as 9%. Further, the “CDK2 % Inhibition at 0.03 μM” value at CDK2/cyclin A (at 0.03 μM) is on record as 3%. Further, in the test with HCT-116 cell line (HCT-116, at 0.1 μM), the “HCT-116 % Inhibition at 0.1 μM” value was 13%. For the same molecule, in the test with HCT-116 cell line (HCT-116, at 0.25 μM), the “HCT-116 % Inhibition at 0.25 μM” value stood at 59%.
For `COc1ccc(CCNC(=O)c2ccc(Nc3nc(N)c(C(=O)c4c(F)cccc4F)s3)cc2)cc1` [Example G238], at human CDK4/cyclin D3 (0.03 μM compound), the “CDK4 % Inhibition at 0.03 μM” value was 26%. Also, the “CDK2 % Inhibition at 0.03 μM” value on CDK2/cyclin A (0.03 μM compound) came out at 18%. Further, the “HCT-116 % Inhibition at 0.1 μM” value with HCT-116 cell line (HCT-116 cells, 0.1 μM compound) was found to be 22%. In addition, the “HCT-116 % Inhibition at 0.25 μM” value in the test with HCT-116 cell line (setting [1]) amounted to 58%.
`Nc1nc(Nc2ccc(C(=O)Nc3ccc4c(c3)S(=O)(=O)NC4=O)cc2)sc1C(=O)c1c(F)cccc1F` [Example G101]: the “CDK4 % Inhibition at 0.03 μM” value at human CDK4/cyclin D3 (at 0.03 μM) is 19%. In addition, the “CDK2 % Inhibition at 0.03 μM” value at CDK2/cyclin A (at 0.03 μM) is reported as 11%. Also, the “HCT-116 % Inhibition at 0.1 μM” value in the test with HCT-116 cell line (HCT-116, at 0.1 μM) was 10%. For the same molecule, the “HCT-116 % Inhibition at 0.25 μM” value with HCT-116 cell line (HCT-116, at 0.25 μM) was found to be 46%.
For the molecule `Nc1nc(Nc2ccc(C(=O)N3CCN(CCCO)CC3)cc2)sc1C(=O)c1c(F)cccc1F` [Example G12], the “CDK4 % Inhibition at 0.03 μM” value at human CDK4/cyclin D3 (at 0.03 μM) is reported as 10%. In addition, at CDK2/cyclin A (at 0.03 μM), the “CDK2 % Inhibition at 0.03 μM” value is listed as −14%. For the same molecule, the “HCT-116 % Inhibition at 0.25 μM” value in the test with HCT-116 cell line (HCT-116, at 0.25 μM) turned out to be 48%.
`Nc1nc(Nc2ccc(C(=O)NCc3ccncc3)cc2)sc1C(=O)c1c(F)cccc1F` [Example G277]: on human CDK4/cyclin D3 (0.03 μM compound), the “CDK4 % Inhibition at 0.03 μM” value was found to be 26%. The “CDK2 % Inhibition at 0.03 μM” value on CDK2/cyclin A (0.03 μM compound) was determined as 8%. Further, the “HCT-116 % Inhibition at 0.1 μM” value in the test with HCT-116 cell line (HCT-116 cells, 0.1 μM compound) is recorded as 11%. Also, in the test on HCT-116 cell line (setting [1]), the “HCT-116 % Inhibition at 0.25 μM” value stood at 56%.

(Values after patent publication US6720346B2, “Thiazole benzamide derivatives and pharmaceutical compositions for inhibiting cell proliferation” (Agouron Pharmaceuticals, Inc., priority 2001, dated 2004).)
